In test [1] the target is Histone-lysine N-methyltransferase EZH2 (Homo sapiens, UniProt O75530+Q09028+Q15022+Q15910, Y641N). The test can be described thus: Inhibition of N-terminally FLAG-tagged EZH2 Y641N mutant in EZH2/SUZ12/EED/RbAp48 complex (unknown origin) expressed in baculovirus infected in SF9 cells assessed as inhibition of methylation of nucleosomes at H3K27 by scintillation counting in presence of [3H]SAM.

Test [2] has as its target Histone-lysine N-methyltransferase EZH2 (Homo sapiens, UniProt O75530+Q09028+Q15022+Q15910). Kind of test: Inhibition of N-terminally FLAG-tagged wild type EZH2 in EZH2/SUZ12/EED/RbAp48 complex (unknown origin) expressed in baculovirus infected in SF9 cells assessed as inhibition of methylation of nucleosomes at H3K27 by scintillation counting in presence of [3H]SAM.
Test [3] deals with Histone-lysine N-methyltransferase SUV39H2 (Homo sapiens, UniProt Q9H5I1). Kind of test: Inhibition of SUV39H2 (unknown origin) by HMT assay.
Test [4] has as its target Histone-lysine N-methyltransferase SETDB1 (Homo sapiens, UniProt Q15047). The test can be described thus: Inhibition of SETDB1 (unknown origin) by HMT assay.
The target in test [5] is N-lysine methyltransferase SMYD2 (Homo sapiens, UniProt Q9NRG4). Kind of test: Inhibition of SMYD2 (unknown origin) by HMT assay.
Test [6] has as its target Histone-lysine N-methyltransferase 2A (Homo sapiens, UniProt Q03164). Kind of test: Inhibition of MLL (unknown origin) by HMT assay.
The target of test [7] is T1, Histone-lysine N-methyltransferase SETD7 (Homo sapiens, UniProt Q8WTS6).
T1 sequence (Q8WTS6 whole entry): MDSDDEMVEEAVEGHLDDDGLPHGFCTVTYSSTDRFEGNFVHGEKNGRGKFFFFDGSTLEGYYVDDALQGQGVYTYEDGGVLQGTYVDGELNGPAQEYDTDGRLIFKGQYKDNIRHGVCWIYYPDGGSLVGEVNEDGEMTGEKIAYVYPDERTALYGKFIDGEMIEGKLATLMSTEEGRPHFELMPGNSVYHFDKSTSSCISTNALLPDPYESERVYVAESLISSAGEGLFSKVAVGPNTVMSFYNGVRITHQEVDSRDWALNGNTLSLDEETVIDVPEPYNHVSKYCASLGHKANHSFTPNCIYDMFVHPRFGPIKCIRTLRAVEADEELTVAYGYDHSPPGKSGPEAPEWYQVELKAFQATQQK
Kind of test: Inhibition of SETD7 (unknown origin) by HMT assay.

Test [8] concerns the target T2, Histone-lysine N-methyltransferase EHMT1 (Homo sapiens, UniProt Q9H9B1).
T2 sequence (Q9H9B1 whole entry): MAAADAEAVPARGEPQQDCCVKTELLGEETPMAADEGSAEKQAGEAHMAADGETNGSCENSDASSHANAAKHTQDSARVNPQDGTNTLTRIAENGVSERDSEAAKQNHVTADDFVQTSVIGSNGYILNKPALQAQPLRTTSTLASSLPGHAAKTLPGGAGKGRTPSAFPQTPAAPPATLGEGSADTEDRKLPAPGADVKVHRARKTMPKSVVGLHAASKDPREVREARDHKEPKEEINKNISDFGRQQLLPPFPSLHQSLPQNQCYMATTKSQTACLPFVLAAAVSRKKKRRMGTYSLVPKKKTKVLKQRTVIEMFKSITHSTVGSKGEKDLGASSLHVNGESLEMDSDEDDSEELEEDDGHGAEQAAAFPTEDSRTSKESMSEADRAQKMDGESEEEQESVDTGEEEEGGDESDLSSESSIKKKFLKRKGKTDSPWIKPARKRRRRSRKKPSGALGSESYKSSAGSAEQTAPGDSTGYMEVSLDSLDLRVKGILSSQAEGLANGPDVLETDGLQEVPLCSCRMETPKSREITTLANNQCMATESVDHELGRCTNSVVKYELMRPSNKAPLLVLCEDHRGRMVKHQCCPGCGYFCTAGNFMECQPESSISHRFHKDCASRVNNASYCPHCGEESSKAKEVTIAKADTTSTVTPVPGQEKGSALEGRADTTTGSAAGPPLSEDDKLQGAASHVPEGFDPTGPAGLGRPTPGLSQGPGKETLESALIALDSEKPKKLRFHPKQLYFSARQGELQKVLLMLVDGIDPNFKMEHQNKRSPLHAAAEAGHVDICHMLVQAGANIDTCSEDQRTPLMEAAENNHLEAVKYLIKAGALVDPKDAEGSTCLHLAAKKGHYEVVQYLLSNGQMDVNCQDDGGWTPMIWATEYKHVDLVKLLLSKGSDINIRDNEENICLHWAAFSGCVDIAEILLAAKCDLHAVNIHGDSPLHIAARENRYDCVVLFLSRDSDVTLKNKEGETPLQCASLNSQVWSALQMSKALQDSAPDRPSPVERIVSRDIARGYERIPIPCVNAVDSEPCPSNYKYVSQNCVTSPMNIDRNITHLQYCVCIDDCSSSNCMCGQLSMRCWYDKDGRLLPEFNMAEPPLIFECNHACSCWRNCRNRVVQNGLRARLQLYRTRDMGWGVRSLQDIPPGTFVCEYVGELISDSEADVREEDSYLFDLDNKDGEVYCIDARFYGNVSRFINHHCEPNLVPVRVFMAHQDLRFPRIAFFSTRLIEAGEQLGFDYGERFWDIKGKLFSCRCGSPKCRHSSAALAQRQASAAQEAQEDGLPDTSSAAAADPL
The test can be described thus: Inhibition of EHMT1 (unknown origin) by HMT assay.

For test [9], the target named is Histone-lysine N-methyltransferase KMT5C (Homo sapiens, UniProt Q86Y97). Kind of test: Inhibition of SUV420H2 (unknown origin) by HMT assay.
Test [10] has as its target Histone-lysine N-methyltransferase EZH2 (Homo sapiens) (UniProt Q15910). Kind of test: Inhibition of EZH2 (unknown origin) at 100 uM by cell-based assay.

The source of these data is ChEMBL document CHEMBL3396964, “SAH derived potent and selective EZH2 inhibitors” (Bioorg Med Chem Lett, 2015).

Each structure is given as a SMILES string. Active and inactive are the calls of the source. The rule behind the calls is not given here.

Sequence of Histone-lysine N-methyltransferase EZH2 (Homo sapiens, UniProt O75530+Q09028+Q15022+Q15910) (Q15910 whole entry, one chain of several): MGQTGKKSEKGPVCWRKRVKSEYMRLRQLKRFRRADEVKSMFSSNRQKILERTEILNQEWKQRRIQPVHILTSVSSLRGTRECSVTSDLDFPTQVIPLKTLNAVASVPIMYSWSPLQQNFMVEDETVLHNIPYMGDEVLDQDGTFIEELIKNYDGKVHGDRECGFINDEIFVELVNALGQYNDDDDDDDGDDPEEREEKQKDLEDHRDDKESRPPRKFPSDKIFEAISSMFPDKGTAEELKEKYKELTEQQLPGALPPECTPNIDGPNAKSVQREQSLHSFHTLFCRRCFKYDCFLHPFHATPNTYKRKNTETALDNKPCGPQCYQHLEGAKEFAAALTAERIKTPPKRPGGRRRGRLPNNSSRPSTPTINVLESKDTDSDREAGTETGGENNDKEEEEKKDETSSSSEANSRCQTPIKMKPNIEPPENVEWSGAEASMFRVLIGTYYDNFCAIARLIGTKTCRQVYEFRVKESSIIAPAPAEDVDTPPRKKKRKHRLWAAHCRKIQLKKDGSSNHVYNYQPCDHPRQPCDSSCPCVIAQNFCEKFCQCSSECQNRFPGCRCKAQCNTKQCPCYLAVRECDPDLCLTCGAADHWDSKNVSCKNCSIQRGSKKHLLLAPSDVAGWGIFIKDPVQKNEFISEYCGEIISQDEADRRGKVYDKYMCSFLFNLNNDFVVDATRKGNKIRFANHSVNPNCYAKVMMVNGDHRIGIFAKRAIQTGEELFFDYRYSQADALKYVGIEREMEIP
Sequence of Histone-lysine N-methyltransferase EZH2 (Homo sapiens, UniProt O75530+Q09028+Q15022+Q15910, Y641N) (Q15910 whole entry Y641N, one chain of several): as the sequence (Q15910 whole entry, one chain of several) above, with Y641N counted along it
Sequence of Histone-lysine N-methyltransferase KMT5C (Q86Y97 whole entry): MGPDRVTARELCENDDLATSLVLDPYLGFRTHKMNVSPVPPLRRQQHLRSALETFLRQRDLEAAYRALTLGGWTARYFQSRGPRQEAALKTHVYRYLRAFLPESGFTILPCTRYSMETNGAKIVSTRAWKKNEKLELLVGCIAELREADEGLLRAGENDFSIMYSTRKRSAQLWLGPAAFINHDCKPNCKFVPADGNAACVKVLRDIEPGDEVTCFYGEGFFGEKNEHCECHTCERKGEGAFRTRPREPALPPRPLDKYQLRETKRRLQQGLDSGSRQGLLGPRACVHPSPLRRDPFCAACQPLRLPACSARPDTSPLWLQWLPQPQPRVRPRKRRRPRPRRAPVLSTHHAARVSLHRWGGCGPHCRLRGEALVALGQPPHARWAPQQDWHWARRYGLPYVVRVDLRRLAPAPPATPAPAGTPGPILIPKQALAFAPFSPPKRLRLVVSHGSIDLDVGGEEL
Sequence of Histone-lysine N-methyltransferase EZH2 (Homo sapiens) (Q15910 whole entry, looked up): as the sequence (Q15910 whole entry, one chain of several) above
Sequence of N-lysine methyltransferase SMYD2 (Q9NRG4 whole entry): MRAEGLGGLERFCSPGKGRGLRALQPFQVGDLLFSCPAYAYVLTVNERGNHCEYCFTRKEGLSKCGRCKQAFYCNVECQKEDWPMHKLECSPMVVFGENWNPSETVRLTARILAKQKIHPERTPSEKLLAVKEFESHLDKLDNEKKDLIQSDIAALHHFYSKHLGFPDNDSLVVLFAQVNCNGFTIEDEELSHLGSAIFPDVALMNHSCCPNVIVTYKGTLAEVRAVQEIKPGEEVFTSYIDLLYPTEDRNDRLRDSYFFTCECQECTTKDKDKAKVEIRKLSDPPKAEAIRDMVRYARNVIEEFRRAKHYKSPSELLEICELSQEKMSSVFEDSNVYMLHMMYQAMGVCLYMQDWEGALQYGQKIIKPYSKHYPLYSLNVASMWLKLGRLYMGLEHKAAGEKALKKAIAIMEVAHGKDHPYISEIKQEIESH
Sequence of Histone-lysine N-methyltransferase SUV39H2 (Q9H5I1 whole entry): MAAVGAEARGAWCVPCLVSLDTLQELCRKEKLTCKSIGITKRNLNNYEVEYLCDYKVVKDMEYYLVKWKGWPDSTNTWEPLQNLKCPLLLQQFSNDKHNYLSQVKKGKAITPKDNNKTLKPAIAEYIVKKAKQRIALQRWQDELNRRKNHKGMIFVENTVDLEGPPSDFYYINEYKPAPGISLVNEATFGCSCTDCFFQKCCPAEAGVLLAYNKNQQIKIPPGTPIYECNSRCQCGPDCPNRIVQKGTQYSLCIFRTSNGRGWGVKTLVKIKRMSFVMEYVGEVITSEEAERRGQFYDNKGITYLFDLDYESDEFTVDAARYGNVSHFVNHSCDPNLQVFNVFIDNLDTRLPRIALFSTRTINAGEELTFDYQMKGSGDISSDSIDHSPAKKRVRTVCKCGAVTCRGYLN

As usually defined, the IC50 is the point on the concentration scale where inhibition reaches its midpoint. For `Nc1ncnc2c1ncn2[C@@H]1O[C@H](CSCC[C@H](N)C(=O)NCc2cnn(-c3ccc(F)cc3)c2)[C@@H](O)[C@H]1O`, the 50% inhibitory concentration (IC50) turned out to be 0.6 µM in test [1] and 1.4 µM in test [2].
For `Nc1ncnc2c1ncn2[C@@H]1O[C@H](CSCC[C@H](N)C(=O)NCc2cnn(Cc3ccccc3)c2)[C@@H](O)[C@H]1O`, the half-inhibitory concentration (IC50) in [2] came out at 24 µM.
Regarding `Nc1ncnc2c1ncn2[C@@H]1O[C@H](CSCC[C@H](N)C(=O)NCc2cc3n(n2)CCN(Cc2ccccc2)C3)[C@@H](O)[C@H]1O`, the results for the half-inhibitory concentration (IC50) in test [1] and in [2] were 2.8 µM and 8 µM, respectively.
Take `CC(C)(C)c1cc(CNC(=O)[C@@H](N)CCSC[C@H]2O[C@@H](n3cnc4c(N)ncnc43)[C@H](O)[C@@H]2O)n[nH]1`: the IC50 in test [1] was found to be 3.6 µM; in test [2] it was 14 µM.
Consider `CCCCNC(=O)C(N)CCSC[C@H]1O[C@@H](n2cnc3c(N)ncnc32)[C@H](O)[C@@H]1O` (mixture of isomers), for which, in [2], the 50% inhibitory concentration (IC50) amounted to 24 µM.
The same measure, in the same setting: to `CCn1cc(CNC(=O)[C@@H](N)CCSC[C@H]2O[C@@H](n3cnc4c(N)ncnc43)[C@H](O)[C@@H]2O)cn1` belongs 50 µM; to `CN1CCn2nc(CNC(=O)[C@@H](N)CCSC[C@H]3O[C@@H](n4cnc5c(N)ncnc54)[C@H](O)[C@@H]3O)cc2C1`, 50 µM.
For the compound `Nc1ncnc2c1ncn2[C@@H]1O[C@H](CSCC[C@H](N)C(=O)O)[C@@H](O)[C@H]1O` [S-ADENOSYLHOMOCYSTEINE], the 50% inhibitory concentration (IC50) in test [3] is 32 µM; in test [4] it was 2.2 µM; in [5] it was 0.18 µM; in test [6], 2.3 µM; in [7], 30 µM; in [8], 0.23 µM. In test [9], inhibition was half-maximal at 10 µM (IC50). Besides, the inhibition result in [10] is “inactive”.
With `Nc1ncnc2c1ncn2[C@@H]1O[C@H](CSCC[C@H](N)C(=O)NCc2cc(C3CCC3)[nH]n2)[C@@H](O)[C@H]1O`, the IC50 in [1] is 1 µM; in [2], 3 µM.
As to `Nc1ncnc2c1ncn2[C@@H]1O[C@H](CSCC[C@H](N)C(=O)NCC2CC2)[C@@H](O)[C@H]1O`, the concentration for half-maximal inhibition (IC50) in [2] is 60 µM.
As for `Cn1nc(CNC(=O)[C@@H](N)CCSC[C@H]2O[C@@H](n3cnc4c(N)ncnc43)[C@H](O)[C@@H]2O)cc1C1CCC1`, the IC50 in test [2] was 40 µM.
As for `Cc1cc(CNC(=O)[C@@H](N)CCSC[C@H]2O[C@@H](n3cnc4c(N)ncnc43)[C@H](O)[C@@H]2O)n(C)n1`, the half-inhibitory concentration (IC50) in test [2] stood at 40 µM.
As to `Nc1ncnc2c1ncn2[C@@H]1O[C@H](CSCC[C@H](N)C(=O)NCc2ccccc2)[C@@H](O)[C@H]1O`, the half-inhibitory concentration (IC50) in [2] was determined as 120 µM.
For the compound `COCc1cc(CNC(=O)[C@@H](N)CCSC[C@H]2O[C@@H](n3cnc4c(N)ncnc43)[C@H](O)[C@@H]2O)n[nH]1`, the concentration for half-maximal inhibition (IC50) in test [2] was 40 µM.
As for `Cc1ccccc1-n1cc(CNC(=O)[C@@H](N)CCSC[C@H]2O[C@@H](n3cnc4c(N)ncnc43)[C@H](O)[C@@H]2O)cn1`, in [2], the IC50 came out at 28 µM.
As for `CCCCNC(=O)[C@@H](N)CCSC[C@H]1O[C@@H](n2cnc3c(N)ncnc32)[C@H](O)[C@@H]1O`, the concentration for half-maximal inhibition (IC50) in test [2] turned out to be 19 µM.
